Assay results as given in patent US20250049819A1, “METHODS FOR TREATING AND PREVENTING C. DIFFICILE INFECTION” (Paratek Pharmaceuticals, Inc., priority 2016, published 2025).
In brackets after ≈: the same amount, converted by molar mass.

How the values were obtained:
Type in all cases: cell-based
[1] = test system: C. difficile strains (N = 27); assay: MIC by agar dilution against C. difficile clinical isolates; conditions: Clostridioides difficile, 27 isolates
Description: (§1) The activity of omadacycline was tested in vitro against 27 clinical isolates of C. difficile. […] The experiments were carried out using broth and agar microdilution methods according to Clinical and Laboratory Standards Institute (CLSI) guidelines. […] Each test was run in duplicate.

[2] = test system: gut microflora populations; assay: In vitro human gut model, gut microflora populations (Example 3)
Source text: An in vitro gut model was used to study the effects of omadacycline instillation on both normal microflora populations and C. difficile. This gut model has been validated against gut contents from sudden death victims and provides a very close simulation of bacterial activities and composition in different areas of the hindgut (Macfarlane et al., Microb. Ecol. 35, 180-7, 1998). The model consists of three vessels aligned in series, and top-fed with a complex growth medium. All three vessels are continuously stirred, anaerobically maintained at 37° C. and regulated to reflect in vivo differences, including pH, from proximal to distal colon. The three anaerobic fermentation vessels are maintained at increasing alkalinity (from pH 5.5±0.2 for vessel 1; pH 6.2±0.2 for vessel 2; and pH 6.8±0.2 for vessel 3). The increasing alkalinity in combination with the nutrient limited conditions are designed to simulate the human gut from the proximal to the distal colon. Inoculation with pooled human feces (from healthy elderly volunteers) is followed by a period of equilibration, during which bacterial populations respond to their environmental conditions and reach a steady state. At this stage, dietary ingredients, prebiotics, pathogens and/or antibiotics may be added, and the bacterial populations monitored. Specific components of the gut flora and relevant pathogens may be closely monitored and their behavior analyzed.
The gut model was inoculated with pooled fecal slurry (5 volunteers ≥60 years of age with no history of antibiotic therapy in the previous 3 months) and left for 2 weeks to allow the bacterial populations to achieve steady state. A single inoculum (˜10^7 cfu/mL) of C. difficile spores (PCR ribotype 027 strain 210) was added into vessel 1 of the gut model on day 14. One week later, on day 21, a second aliquot of C. difficile spores was added, and antibiotic instillation commenced. Omadacycline instillation (430 mg/L, once daily, for 7 days) commenced on day 21.
Gut microbiota bacterial populations and C. difficile total viable counts and spore counts were enumerated daily by culture on selective and non-selective agars. C. difficile populations were monitored in all three vessels, and all other bacterial groups (total obligate anaerobes, total facultative anaerobes, lactose fermenting enterobacteriaceae, enterococci, total clostridia, lactobacilli, bifidobacteria, B. fragilis group) were monitored in vessels 2 and 3 only. Vessel 3 is of most physiological relevance in terms of propensity to induce CDI. C. difficile total viable counts and spores counts were monitored using viable counting and a differential alcohol shock viable count on selective agars.

[3] = test system: C. difficile strains (N = 27); assay: MIC by broth microdilution against C. difficile clinical isolates; conditions: Clostridioides difficile, 27 isolates
Description: as §1

[4] = vessels 2 and 3, 430 mg/L once daily for 7 days
[5] = vessels 2 and 3, 430 mg/L once daily for 7 days, fell below limit of detection

CN(C)c1cc(CNCC(C)(C)C)c(O)c2c1C[C@H]1C[C@H]3[C@H](N(C)C)C(O)=C(C(N)=O)C(=O)[C@@]3(O)C(O)=C1C2=O (stereo in doubt) [Omadacycline]
MIC90 [1]: 0.12 µg/mL (≈ 0.216 µM)
time for all populations to return to steady state levels post antimicrobial exposure ([2]; after end of dosing): approximately 1 week
Enterobacteriacea populations [2, 4]: remained undisturbed
decrease in B. fragilis group [2, 4]: ~3 log10 cfu/mL
decrease in Enterococcus spp. [2, 4]: ~4 log10 cfu/mL
decrease in Lactobacillus spp. [2, 4]: ~2 log10 cfu/mL
decline in Bifidobacteria population [2, 5]: ~6 log10 cfu/mL
decline in Clostridia population [2, 5]: ~6 log10 cfu/mL
MIC90 ([3]; read-out: MIC90 by broth dilution): 0.06 µg/mL (≈ 0.108 µM)
MIC50 ([3]; Wilkins-Chalgren broth, 48 hours anaerobic): 60 µg/mL (≈ 108 µM)
MIC90 ([3]; Wilkins-Chalgren broth, 48 hours anaerobic, read-out: Broth Microdilution MIC90): 60 µg/mL (≈ 108 µM)
